According to patent publication US20180237441A1, “Chemical Compounds” (GlaxoSmithKline Intellectual Property (No.2) Limited, priority 2015, published 2018):
Where two headings read alike, the source gives them in different places.

Target: T1, PERK (Homo sapiens, UniProt Q9NZJ5)
T1 sequence (Q9NZJ5 30-1116): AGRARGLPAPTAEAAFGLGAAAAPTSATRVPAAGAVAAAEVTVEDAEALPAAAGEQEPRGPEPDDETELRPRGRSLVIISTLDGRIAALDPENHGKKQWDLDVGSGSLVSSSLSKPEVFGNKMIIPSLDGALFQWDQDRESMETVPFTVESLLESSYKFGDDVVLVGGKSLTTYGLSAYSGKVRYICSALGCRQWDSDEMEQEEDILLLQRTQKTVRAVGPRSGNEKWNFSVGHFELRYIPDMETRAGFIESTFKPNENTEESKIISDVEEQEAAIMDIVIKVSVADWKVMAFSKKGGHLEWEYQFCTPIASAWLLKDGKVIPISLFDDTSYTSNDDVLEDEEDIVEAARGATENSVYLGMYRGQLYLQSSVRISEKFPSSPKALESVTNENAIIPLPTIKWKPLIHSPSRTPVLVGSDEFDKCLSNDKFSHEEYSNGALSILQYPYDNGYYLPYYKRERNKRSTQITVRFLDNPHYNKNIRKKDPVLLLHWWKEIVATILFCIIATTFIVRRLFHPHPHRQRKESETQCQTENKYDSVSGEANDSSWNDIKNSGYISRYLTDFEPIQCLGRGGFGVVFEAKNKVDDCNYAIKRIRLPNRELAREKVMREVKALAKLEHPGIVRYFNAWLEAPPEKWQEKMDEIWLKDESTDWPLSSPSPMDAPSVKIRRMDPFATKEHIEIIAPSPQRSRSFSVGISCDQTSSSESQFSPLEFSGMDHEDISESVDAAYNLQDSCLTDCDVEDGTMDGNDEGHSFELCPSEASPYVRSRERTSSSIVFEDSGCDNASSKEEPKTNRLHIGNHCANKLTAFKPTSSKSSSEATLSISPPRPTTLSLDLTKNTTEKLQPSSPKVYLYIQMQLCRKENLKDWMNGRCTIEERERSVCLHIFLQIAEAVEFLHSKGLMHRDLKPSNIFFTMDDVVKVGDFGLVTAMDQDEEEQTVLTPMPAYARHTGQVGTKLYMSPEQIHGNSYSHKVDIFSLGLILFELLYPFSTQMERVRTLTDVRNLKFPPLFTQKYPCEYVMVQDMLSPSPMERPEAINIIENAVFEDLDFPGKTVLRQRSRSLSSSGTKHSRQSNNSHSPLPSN
Test: PERK enzyme assay (HTRF)
Assay type: biochemical
Conditions: at least one experimental run
Summary of the method: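 GST-PERK (0.75 nM final) pre-incubated 30–60 min with compound (≤1% DMSO) in HEPES pH 7.5/CHAPS/MgCl2/DTT, then 500 μM ATP and 40 nM biotin-eIF2α added for 60 min. EDTA quench; HTRF detection of phospho-eIF2α (Eu anti-rabbit/streptavidin-APC) read after 2 h; IC50 from concentration series.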

[1] = PERK Enzyme (500 μM ATP) IC50, read-out: PERK Activity

`Cc1nc(N)c2c(-c3ccc(N4CC(c5cc(F)ccc5F)N(C)C4=O)cc3F)cn(C)c2n1` (stereo not drawn) [Example 15, 1-(4-(4-amino-2,7-dimethyl-7H-pyrrolo[2,3-d]pyrimidin-5-yl)-3-fluorophenyl)-4-(2,5-difluorophenyl)-3-methylimidazolidin-2-one] was tested. Which IC50 [1] did it give?
Its IC50 is < 100 nM.

For `Cn1cc(-c2ccc(N3CC(c4ccc(F)cc4F)N(CC(F)(F)F)C3=O)cc2F)c2c(N)ncnc21` (stereo not drawn) [Example 79, 1-(4-(4-amino-7-methyl-7H-pyrrolo[2,3-d]pyrimidin-5-yl)-3-fluorophenyl)-4-(2,4-difluorophenyl)-3-(2,2,2-trifluoroethyl)imidazolidin-2-one], which IC50 [1] is on record?
Its IC50 is < 100 nM.

For `CN1C(=O)N(c2ccc(-c3cn(C)c4ncnc(N)c34)c(F)c2)CC1c1cc(F)cc(Cl)c1` (single isomer, unassigned) [Example 51, 1-(4-(4-amino-7-methyl-7H-pyrrolo[2,3-d]pyrimidin-5-yl)-3-fluorophenyl)-4-(3-chloro-5-fluorophenyl)-3-methylimidazolidin-2-one], which IC50 [1] is on record?
Its IC50 is < 100 nM.

How did the IC50 [1] turn out when `Cc1nc(N)c2c(-c3c(F)cc(N4CC(c5ccc(F)cc5F)N(C)C4=O)cc3F)cn(C)c2n1` (stereo not drawn) [Example 105, 1-(4-(4-amino-2,7-dimethyl-7H-pyrrolo[2,3-d]pyrimidin-5-yl)-3,5-difluorophenyl)-4-(2,4-difluorophenyl)-3-methylimidazolidin-2-one] was run?
Its IC50 is 100 to 1000 nM.

For `CN1C(=O)N(c2ccc(-c3cn(C4CC4)c4ncnc(N)c34)c(F)c2)CC1c1ccc(F)cc1` (single isomer, unassigned) [Example 163, 1-(4-(4-amino-7-cyclopropyl-7H-pyrrolo[2,3-d]pyrimidin-5-yl)-3-fluorophenyl)-4-(4-fluorophenyl)-3-methylimidazolidin-2-one], which IC50 [1] is on record?
Its IC50 is < 100 nM.

For `CN1C(=O)N(c2ccc(-c3cn(C)c4ncnc(N)c34)c(F)c2)CC1c1ccc(F)c(F)c1` (single isomer, unassigned) [Example 115, 1-(4-(4-amino-7-methyl-7H-pyrrolo[2,3-d]pyrimidin-5-yl)-3-fluorophenyl)-4-(3,4-difluorophenyl)-3-methylimidazolidin-2-one], which IC50 (500 μM ATP, read-out: PERK Enzyme (500 μM ATP) IC50) is on record?
Its IC50 is 2.4 nM.

What about the IC50 [1] of the same molecule?
The IC50 was < 100 nM.

With `CN1C(=O)N(c2ccc(-c3cn(C)c4ncnc(N)c34)c(F)c2)CC1c1cccc(F)c1F` (single isomer, unassigned) [Example 77, 1-(4-(4-amino-7-methyl-7H-pyrrolo[2,3-d]pyrimidin-5-yl)-3-fluorophenyl)-4-(2,3-difluorophenyl)-3-methylimidazolidin-2-one] as the molecule, how does the IC50 [1] read?
Its IC50 is < 100 nM.

`CCN1C(=O)N(c2ccc(-c3cn(CC(F)F)c4ncnc(N)c34)c(F)c2)CC1c1cc(F)ccc1F` (stereo not drawn) [Example 17, 1-(4-(4-amino-7-(2,2-difluoroethyl)-7H-pyrrolo[2,3-d]pyrimidin-5-yl)-3-fluorophenyl)-4-(2,5-difluorophenyl)-3-ethylimidazolidin-2-one] was tested. Which IC50 [1] did it give?
The IC50 was 100 to 1000 nM.

For `CN1C(=O)N(c2ccc(-c3cn(C4CC4)c4ncnc(N)c34)c(F)c2)CC1c1cc(F)cc(F)c1` (racemic) [Example 175, 1-(4-(4-amino-7-cyclopropyl-7H-pvrrolo[2,3-d]pyrimidin-5-yl)-3-fluorophenyl)-4-(3,5-difluorophenyl)-3-methylimidazolidin-2-one], which IC50 [1] is on record?
Its IC50 is < 100 nM.

With `CN1C(=O)N(c2ccc(-c3cn(C)c4ncnc(N)c34)c(F)c2)CC1c1ccc(F)c(Cl)c1` (stereo not drawn) [Example 131, 1-(4-(4-amino-7-methyl-7H-pyrrolo[2,3-d]pyrimidin-5-yl)-3-fluorophenyl)-4-(3-chloro-4-fluorophenyl)-3-methylimidazolidin-2-one] as the molecule, how does the IC50 [1] read?
Its IC50 is < 100 nM.

Which IC50 [1] does the source give for `CCN1C(=O)N(c2ccc(-c3cn(C4CC4)c4ncnc(N)c34)c(F)c2)CC1c1cc(F)ccc1F` (stereo not drawn) [Example 120, 1-(4-(4-amino-7-cyclopropyl-7H-pyrrolo[2,3-d]pyrimidin-5-yl)-3-fluorophenyl)-4-(2,5-difluorophenyl)-3-ethylimidazolidin-2-one] here?
The IC50 was < 100 nM.
